According to patent US5397774A, “Pyrazolopyrimidine and pyrimidinyl bisphosphonic esters as anti-inflammatories” (The Upjohn Company, priority 1993, dated 1995):
Where a name gives a salt, the structure may show the parent alone.

Tested on: DTH granuloma (DTH GRA) lesion in mBSA-sensitized mice
Test: Delayed Type Hypersensitivity Granuloma Assay (DTH GRA) model for inflammation
Type: in vivo, mouse
Conditions: for % Inhibition / inhibition in vivo at 10 mg/kg: 10 mg/kg PO, mouse DTH granuloma excised after nine days; for inhibition in vivo at 50 mg/kg: footnote a: tested at 50 mg/kg
Procedure: This assay is described by Dunn, C.
Briefly, mBSA-sensitized mice have a DTH granuloma (DTH GRA) lesion induced by subcutaneously implanting a mBSA-soaked filter which is excised after nine days. Compounds are administered to the mice to determine their effect on the lesions. The results are recorded as percent inhibition. […] Inhibition of 10 to 20% is considered to indicate anti-granuloma activity.
Again, as in Table 1, the results are recorded as percent inhibition. […] Inhibition of 10 to 20% is considered to indicate anti-granuloma activity. […]

[1] = Mus musculus, po, 216 h, Table 1, Formula 1 compounds
[2] = Mus musculus, po, 216 h, Table 2, Formula 2 compounds
[3] = Mus musculus, po, 216 h, Table 1, Formula 1 compounds, PO

SMILES	inhibition in vivo at 10 mg/kg [2]	other results
C=CCn1c(CCC(P(=O)(OCC)OCC)P(=O)(OCC)OCC)nc(-c2ccccc2)cc1=O [hh, (3-(2-(3-Allyl-4-oxo-6-phenyl-4(3H)-pyrimidinyl))-propylidine)bisphosphonic acid tetraethyl ester]	–	% Inhibition (Table 2, Formula 2 compounds, 10 mg/kg): 11%
CCOP(=O)(OCC)C(CCc1cc(C)nc2cc(-c3ccccc3)nn12)P(=O)(OCC)OCC [i, (3-(5-Methyl-2-phenyl-pyrazolo(1,5-a)pyrimidin-7-yl)-propylidene)bisphosphonic acid tetraethyl ester]	–	inhibition in vivo at 10 mg/kg [1]: 47%
CCOP(=O)(OCC)C(CCc1nc(-c2ccccc2)cc(=O)n1CC)P(=O)(OCC)OCC [ii, (3-(2-(3-Ethyl-4-oxo-6-phenyl-4(3H)-pyrimidinyl))-propylidine)bisphosphonic acid tetraethyl ester]	12%	–
CCOP(=O)(OCC)C(CCc1cc(C)nc2c(I)c(-c3ccccc3)nn12)P(=O)(OCC)OCC [j, (3-(3-Iodo-5-methyl-2-phenyl-pyrazolo(1,5-a)pyrimidin-7-yl)-propylidene)bisphosphonic acid tetraethyl ester]	–	inhibition in vivo at 10 mg/kg [1]: 53%
CCCn1c(CCC(P(=O)(OCC)OCC)P(=O)(OCC)OCC)nc(-c2ccccc2)cc1=O [jj, (3-(2-(3-Propyl-4-oxo-6-phenyl-4(3H)-pyrimidinyl))-propylidine)bisphosphonic acid tetraethyl ester]	41%	–
CCOP(=O)(OCC)C(CCc1cc(C)nc2c(Cl)c(-c3ccccc3)nn12)P(=O)(OCC)OCC [k, (3-(3-Chloro-5-methyl-2-phenyl-pyrazolo(1,5-a)pyrimidin-7-yl)-propylidene)bisphosphonic acid tetraethyl ester]	–	inhibition in vivo at 50 mg/kg [3]: 31%
CCOP(=O)(OCC)C(CCc1cc(C)nc2c(Br)c(-c3ccccc3)nn12)P(=O)(OCC)OCC [l, (3-(3-Bromo-5-methyl-2-phenyl-pyrazolo(1,5-a)pyrimidin-7-yl)-propylidene)bisphosphonic acid tetraethyl ester]	–	inhibition in vivo at 50 mg/kg [3]: 23%
COP(=O)(OC)C(CCc1cc(C)nc2c(C#N)c(C)nn12)P(=O)(OC)OC [m, (3-(3-Cyano-2,5-dimethyl-pyrazolo(1,5-a)pyrimidin-7-yl)-propylidene)bisphosphonic acid tetramethyl ester]	–	inhibition in vivo at 10 mg/kg [1]: 41%
Cn1c(CCC(P2(=O)OCC(C)(C)CO2)P2(=O)OCC(C)(C)CO2)nc(-c2cc(F)c(N3CCCCC3)c(F)c2F)cc1=O [mm, (3-(2-(3-Methyl-4-oxo-6-(2,3,5-trifluoro-4-piperidinophenyl)-4(3H)-pyrimidinyl))-propylidine)bis(5,5-dimethyl-2,2'-dioxide-1,3,2-dioxaphosphorinane)]	–	inhibition in vivo at 10 mg/kg (216 h, Table 2, Formula 2 compounds): 50%
Cc1cc(CCC(P2(=O)OCC(C)(C)CO2)P2(=O)OCC(C)(C)CO2)n2nc(C)c(C#N)c2n1 [n, (3-(3-Cyano-2,5-dimethyl-pyrazolo(1,5-a)pyrimidin-7-yl)-propylidene)bis(5,5-dimethyl-2,2'-dioxide-1,3,2-dioxaphosphorinane)]	–	inhibition in vivo at 10 mg/kg (216 h, Table 1, Formula 1 compounds): 45%
CCOP(=O)(OCC)C(CCc1c(Cl)c(C)nc2c(C#N)c(C)nn12)P(=O)(OCC)OCC [o, (3-(6-Chloro-3-cyano-2,5-dimethyl-pyrazolo(1,5-a)pyrimidin-7-yl)-propylidene)bisphosphonic acid tetraethyl ester]	–	inhibition in vivo at 10 mg/kg [1]: 53%
CCOP(=O)(OCC)C(CCc1nc2cc(Cl)ccc2c(=O)n1C)P(=O)(OCC)OCC [oo]	–	% Inhibition (Table 2, Formula 2 compounds): 41%
CCOP(=O)(OCC)C(CCc1nc(-c2ccccc2)cc(=O)n1C)P(=O)(OCC)OCC [p, (3-(2-(3-Methyl-4-oxo-6-phenyl-4(3H)-pyrimidinyl))-propylidine)bisphosphonic acid tetraethyl ester]	60%	–
Cn1c(CCC(P(=O)(O)O)P(=O)(O)O)nc(-c2ccccc2)cc1=O [q, (3-(2-(3-Methyl-4-oxo-6-phenyl-4(3H)-pyrimidinyl))-propylidine)bisphosphonic acid disodium salt]	–	inhibition in vivo at 1 mg/kg (Mus musculus, 216 h, Table 2, Formula 2 compounds, tested at 1 mg/kg, PO): 57%
CCOP(=O)(OCC)C(CCc1nc(-c2ccccc2)cc(=O)n1Cc1ccccc1)P(=O)(OCC)OCC [r, (3-(2-(3-Benzyl-4-oxo-6-phenyl-4(3H)-pyrimidinyl))-propylidine)bisphosphonic acid tetraethyl ester]	17%	–
CCOP(=O)(O)C(CCc1nc(-c2ccccc2)cc(=O)n1C)P(=O)(OCC)OCC (centres unmarked) [rr, (3-(2-(3-Methyl-4-oxo-6-phenyl-4(3H)-pyrimidinyl))-propylidine)bisphosphonic acid triethyl ester sodium salt]	50%	–
CCOP(=O)(OCC)C(CCc1nc(-c2cccc(F)c2)cc(=O)n1C)P(=O)(OCC)OCC [s, (3-(2-(3-Methyl-4-oxo-6-(3-fluoro-phenyl)-4(3H)-pyrimidinyl))-propylidine)bisphosphonic acid tetraethyl ester]	32%	–
C=CCn1c(CCC(P(=O)(OCC)OCC)P(=O)(OCC)OCC)nc(-c2ccccc2)cc1=O [t, (3-(2-(3-Allyl-4-oxo-6-phenyl-4(3H)-pyrimidinyl))-propylidine)bisphosphonic acid tetraethyl ester]	7%	–
CCOP(=O)(OCC)C(CCc1nc(-c2cccc(C)c2)cc(=O)n1C)P(=O)(OCC)OCC [v, (3-(2-(3-Methyl-4-oxo-6-(3-methyl-phenyl)-4(3H)-pyrimidinyl))-propylidine)bisphosphonic acid tetraethyl ester]	40%	–
CCOP(=O)(OCC)C(CCc1nc(-c2cccc(OC)c2)cc(=O)n1C)P(=O)(OCC)OCC [w, (3-(2-(3-Methyl-4-oxo-6-(3-methoxy-phenyl)-4(3H)-pyrimidinyl))-propylidine) bisphosphonic acid tetraethyl ester]	13%	–
CCOP(=O)(OCC)C(CCc1nc(-c2cccc(C(F)(F)F)c2)cc(=O)n1C)P(=O)(OCC)OCC [x, (3-(2-(3-Methyl-4-oxo-6-(3-trifluoromethyl-phenyl)-4(3H)-pyrimidinyl))propylidine)bisphosphonic acid tetraethyl ester]	6%	–
CCOP(=O)(OCC)C(CCc1nc(-c2ccccc2)c(Br)c(=O)n1C)P(=O)(OCC)OCC [y, (3-(2-(3-Methyl-4-oxo-5-bromo-6-phenyl-4(3H)-pyrimidinyl))-propylidine)bisphosphonic acid tetraethyl ester]	7%	–
COP(=O)(OC)C(CCc1nc(-c2ccccc2)cc(=O)n1C)P(=O)(OC)OC [z, (3-(2-(3-Methyl-4-oxo-6-phenyl-4(3H)-pyrimidinyl))-propylidine)bisphosphonic acid tetramethyl ester]	36%	–
